One data set can be described thus: kinetic solubility. It counts as physicochemical. The following applies: PBS buffer, aqueous buffer, kinetic from dmso stock, PBS pH 7.4, 37°C, ± st. dev. between technical replicates, read-out: Kin. Sol. Here is the method:
Starting from an initial concentration of 100, 50 or 20 µM, a 2-fold serial dilution of the compound (10 mM stock in DMSO) was prepared in a mixture of ACN/Buffer (PBS, pH = 7.4) 2:8, with 1% DMSO. 350 µL was transferred to a 96-Well Plate (Greiner, UV-star) then UV absorption (240-400 nm, 10 nm steps) was measured. The absorption was blank-corrected and plotted against concentration. The wavelength (λ) providing the best fitting straight line […]
was used as the calibration curve. To obtain saturated solutions of the compounds of interest, in duplicates 4.4 µL of a 10 or 5 mM stock in DMSO was added to 436 µL Buffer (PBS, pH = 7.4), to give a final concentration of 100 or 50 µM. Samples were incubated on a shaker (500 rpm) at 37°C for 90 minutes and then filtered (Millex-GV 13 mm, 0.22 µm). 304 µL of the filtrate was mixed with 76 µL of acetonitrile on a dilution plate, from which 350 µL was transferred to a UV-plate and UV-absorption was read using a SpectraMax M5 (Molecular devices). The absorbance was blank-corrected and compared to the calibration curve to […]
solubility. The wavelengths used for the calibration curve are available in Table S4.
Based on the known density of 12.5 % CAPTISOL® solution (d = 1.05755 g/mL at 25 °C), the precise weight of the resulting solution and so the required amount of water by weight was calculated. The water was added portion wise with agitation, vortexing and sonication cycles in between additions. The saturated solutions were then filtered (Millex-GV 13 mm, 0.22 µm). In duplicates, aliquots of the filtrates were taken and diluted with blank 12.5 % CAPTISOL® water solution in either a 1:14 (higher sol. compounds) or 1:7 (lower sol. compounds) ratio, 350 µL was transferred to a 96-Well Plate (Greiner, UV-star) then UV absorption (240-400 nm, 10 nm steps) was measured using a SpectraMax M5 (Molecular devices). The absorption was blank-corrected, compared to the calibration curve obtained during the solubility measurement method above and finally corrected for the dilution ratio to obtain the compound concentration in the saturated 12.5 % CAPTISOL® solution. The calculated concentrations are available in Table S4.
BROMOscan™ assays (provided by Eurofins DiscoverX, US)1,2 […]
coli host derived from the BL21 strain. E. coli were grown to log-phase and infected with T7 phage from a frozen stock (multiplicity of infection = 0.4) and incubated with shaking at 32°C until lysis (90-150 minutes). The lysates were centrifuged (5,000 x g) and filtered (0.2µm) to remove cell debris. Streptavidin-coated magnetic beads were treated with biotinylated small molecule or acetylated peptide ligands for 30 minutes at room temperature to generate affinity resins for bromodomain assays. The liganded beads were blocked with excess biotin and washed with blocking buffer (SeaBlock (Pierce), 1 % BSA, 0.05 % Tween 20, 1 mM DTT) to remove unbound ligand and to reduce non specific phage binding. Binding reactions were assembled by combining bromodomains, liganded affinity beads, and test compounds (see […]
Sodium azide, 7.4 mM DTT). All reactions were performed in polypropylene 384-well plates in a final volume of 0.02 mL. The assay plates were incubated at room temperature with […]
20). The beads were then resuspended in elution buffer (1x PBS, 0.05% Tween 20, 2 µM non-

For a further data set, the system named is BRD4(1)-BRD. The following applies: cited from earlier work.
The test system of a further data set is CBP-BRD. The following applies: TR-FRET, read-out: Affinity to CBP-BRD, IC50, cited from earlier work. In general terms: TR-FRET usually uses a lanthanide donor and a delayed reading to cut background.
Data set [1] concerns TNF-α-induced cytokine expression in THP-1 cells. As to the kind of experiment: cytokine mRNA expression by RT-qPCR. The following applies: 1 h co-treatment of THP-1 cells with 10 ng/mL TNF-α and 1 μM compound. Format: cell-based, human. Here is the method: For cytokine expression determination, 5x10^5 THP-1 cells were plated on 12 well plates the day prior to treatment with 10 ng/mL recombinant human TNF -α (aa 77-233) protein (R&D systems, 10291 -TA) and compounds at a final concentration of 0.1 % DMSO. In all cases, total
(§1) RNA was extracted using the NucleoSpin® RNA kit (Machery -Nagel) and used for cDNA synthesis with the High -Capacity cDNA Reverse Transcription kit (Applied Biosystems). RT-qPCR reactions were performed using PowerSYBR™ green PCR Master Mix (Applied Biosystems) and a LightCycler® 480 (Roche). cDNA was denatured for 10 min at 95 °C followed by 40 cycles of 15 s at 95 °C and 1 min at 60 °C. Cp values were determined as the maximum of the second derivative and target gene expression was compared to that of hprt from the same sample using the 2-ΔCp method. Gene expression was then normalized to the average of the control samples from the same day, or all biological replicates. […]

The test system of data set [2] is TNF-α-induced IL-8 secretion from THP-1 cells. The data set can be described thus: cytokine protein measurement (LEGENDPlex). The following applies: 10 ng/mL TNF-α, 1 μM compound. Format: cell-based, human. Here is the method: For cytokine expression determination, 5x10^5 THP-1 cells were plated on 12 well plates the day prior to treatment with 10 ng/mL recombinant human TNF -α (aa 77-233) protein (R&D systems, 10291 -TA) and compounds at a final concentration of 0.1 % DMSO. In all cases, total […]
Cytokine protein measurements
THP-1 cells were plated and treated as for the quantitative RT -PCR, then the cell culture medium was harvested by pelleting the cells (300g, 3min) and taking the supernatant .
Cytokine protein concentrations were determined using the LEGENDPlexTM Human Inflammation Panel 1 (BioLegend) assay with 25 µL of culture medium following the manufacturer’s instructi ns. amp es were ana zed f w c t metr n an rtessa Biosciences), and data was analyzed using LEGENDPlex software (BioLegend).

The subject of another data set is MRC5 cells. The data set can be described thus: viability assay (resazurin). It counts as cell-based. The following applies: three-day treatment, concentration resulting in 70 % viability. Here is the method:
MRC5 (2x10^3 cells/well) or THP-1 (8x10^3 cells/well) cells were plated onto 96 well plates and treated with compounds at a final DMSO concentration of 0.5 % (MRC5) or 0.1 % (THP-1).
After 3 days of treatment, resazurin (Acros Organics) was added at a final concentration of 86 μ and incu ated for 2h15 (MRC5) or 3 h (THP-1). Fluorescence (ex. 560 nm, em. 590 nm) was read using a SpectraMax M5 (Molecular devices). GI30 values were calculated as the compound concentration resulting in 70 % viability compared to DMSO treated controls using a nonlinear regression fit using GraphPad Prism with the following equation: (Y=Bottom + (100-Bottom)/(1+(IC50/X)^HillSlope)). […]
After 1.5 h, mice were injected with 10 µL of the prepared CAPTISOL […]
foodpad and also intraperitoneally (for i.p. injection, the 10 µL of CAPTISOL solution was diluted to a final volume of 100 µL using PBS). Organs were collected 5 h after TNF-α […]
LEGENDPlexTM assays (Mouse Pro-inflammatory Chemokine Panel and Mouse Inflammation Panel; Biolegend) were performed to monitor cytokine/chemokine expression. Briefly, popliteal LNs were collected and carefully disrupted in […] ice-cold phosphate buffer, minimizing cell rupture. The suspension was centrifuged at 1,500 rpm for 5 min, and the […]
In general terms: The colour change of resazurin is a common sign of viable cells or microbes.

The target of data set [3] is T1, CBP-BRD (ePL-CBP-BRD in HEK293T cells) (Homo sapiens, UniProt Q92793).
T1 construct: (residues 1083-1197) was cloned into the pICP-ePL-C vector; expressed in transfected cells; host or cells: HEK293T, transient transfection (vector pICP-ePL-C, DiscoverX 94-4007S)
T1 sequence (Q92793 1083-1197): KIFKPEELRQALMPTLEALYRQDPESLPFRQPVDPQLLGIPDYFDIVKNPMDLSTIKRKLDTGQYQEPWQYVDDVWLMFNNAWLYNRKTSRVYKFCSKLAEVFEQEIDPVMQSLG
The data set can be described thus: CBP-BRD InCELL Pulse cellular target engagement. The following applies: 1 h compound treatment of HEK293T cells transiently transfected with ePL-CBP-BRD. It counts as cell-based. Here is the method: The CBP-BRD (residues 1083-1197) was cloned into the pICP-ePL-C vector (DiscoverX, 94-4007S) between the EcoRI and XhoI restriction sites using the hexahistidine-CREBBP plasmid as a template. 5x10^5 HEK293T cells were plated on a 6 well plate the day prior to transfection with 1.5 μg ePL-CBP-BRD plasmid using 5 μl FugeneHD (Promega E2311) in 500 μl optiMEM® (Gibco, 31985062) . Proteins were allowed to express for 20 h before cells were trypsinized, washed and resuspended in low -serum medium (DMEM with 5 % FBS). Compounds were serially diluted in DMSO at 100x, pre-diluted to 5x in complete medium (DMEM with 10 % FBS and 1 % P/S), then added to a suspension of 5x10^3 cells, giving a final DMSO concentration of 1 %. Treated cells were incubated for 1 h at 37 °C in an incubator, followed by a heat shock for 3 min at 45 °C and recovery for 3 min at 22 °C using a thermocycler with a ramp rate of 1 °C/s (SimpliAmp, Thermo Fisher). Stab ilized ePL tag was quantified using the InCELL detecti n Kit isc verX as per the manufacturer’s pr t c usin the -10 working detection solution and a 2 h incubation before reading luminescence with a SpectraMax M5 plate reader (Molecular devices). […]

Data set [4] concerns myc expression in LP1 cells. As to the kind of experiment: myc mRNA expression by RT-qPCR. It counts as cell-based. The following applies: 4 h treatment of LP1 cells with 1 μM compound. The procedure: For myc expression, 1x10^6 LP1 cells were plated the day prior to a 4 h treatment with compounds at a final DMSO concentration of 0.1 %. […]
In all cases, total
as §1

≈ marks a conversion by molar mass, not a printed value. Like-named read-outs stand apart in the source and are kept apart here.

Regarding `Cc1cc2c(NC(=O)c3cc(NC(=O)C4COC4)cc(-c4ccn(C)n4)c3)cccc2nn1` [Compound 7], the solubility kinetic at 90 min in “kinetic solubility” came to 82.6 ± 0.7 µM (≈ 36.5 µg/mL). As a reminder, the IC50 is the midpoint of a concentration-inhibition curve. Consider `CNC(=O)N1CCc2c(c(N3CCCc4cc(-c5cnn(C)c5)c(C(F)F)cc43)nn2C2CCOCC2)C1` [GNE-781], for which the “Sel. over BRD4(1)-BRD” value with BRD4(1)-BRD (ref Romero et al., 2017) is on record as 5425 fold. Also, the IC50 with CBP-BRD (ref Romero et al., 2017) is 0.9 nM. Consider `Cc1cc2c(NC(=O)c3cc(NC(=O)c4ccc(CN5CCN(C)CC5)o4)cc(-c4ccn(C)n4)c3)cccc2nn1` [Compound 8], for which the solubility kinetic at 90 min in the data set “kinetic solubility” was 69.9 ± 2.3 µM (≈ 39.5 µg/mL).

Take `CNC(=O)Nc1ccc2c(c1)CC[C@@]21OC(=O)N(CC(=O)N(Cc2ccc(F)cc2)[C@@H](C)C(F)(F)F)C1=O` [A485]: in data set [1], the “TNF-α-induced expression of il1β, il8, mcp-1 and tnf-α (mRNA)” value was “significantly reduced the TNF-α-induced expression of all four tested genes”. In addition, the “TNF-α-induced IL-8 protein secretion” value in data set [2] is given as “significantly reducing its TNF-α-induced secretion”. In the data set on MRC5 cells, this compound showed a GI30 of 1200 nM.

As to `Cc1cc2c(NC(=O)c3cc(NC(=O)c4ccco4)cc(-c4c(C)n[nH]c4C)c3)cccc2nn1` [Compound 4], the solubility kinetic at 90 min in the data set “kinetic solubility” was 6 ± 1 µM (≈ 2.8 µg/mL). Consider `COc1ccc(CCc2nc3cc(-c4c(C)noc4C)ccn3c2NC2CCCCC2)cc1Cl` [UMB298], for which the “Sel. over BRD4(1)-BRD” value in the data set on BRD4(1)-BRD (ref Muthengi et al., 2021) is listed as 72 fold. In the case of `COc1ccc(CCc2nc3cc(-c4c(C)noc4C)ccc3n2C[C@H](C)N2CCOCC2)cc1Cl` [SGC-CBP30], the “Sel. over BRD4(1)-BRD” value with BRD4(1)-BRD (ref Hay et al., 2014) is given as 40 fold. Regarding `Cc1cc2c(NC(=O)c3cc(NC(=O)c4ccco4)cc(-c4nn(C)cc4Cl)c3)cccc2nn1` [Compound 3], the solubility kinetic at 90 min in the data set “kinetic solubility” is 9.5 ± 0.4 µM (≈ 4.63 µg/mL). On to `C[C@@H]1CC(=O)Nc2cccc(-c3ccc4c(c3)c(-c3cnn(C)c3)nn4C)c2N1` [CPI-637], for which the “Sel. over BRD4(1)-BRD” value in the data set with BRD4(1)-BRD (ref Taylor et al., 2016) was 367 fold. The IC50 with CBP-BRD (ref Taylor et al., 2016) was 30 nM. As for `Cc1cc2c(NC(=O)c3cc(NC(=O)[C@@H]4CCCO4)cc(-c4ccn(C)n4)c3)cccc2nn1` [Compound 6], the “cellular binding to CBP-BRD (InCELL Pulse)” value in data set [3] is given as “able to engage the target very similarly”. In data set [4], the “myc mRNA expression” value is on record as “significantly decreased the expression level of myc”. The solubility kinetic at 90 min in “kinetic solubility” was 71 ± 0.7 µM (≈ 32.4 µg/mL).

The record behind these values is publication PMC12188386, “Selective CBP/EP300 Bromodomain Inhibitors: Novel Epigenetic Tools to Counter TNF-α-Driven Inflammation” (JACS Au, 2025).
